# Patent publication US9617251B2, “Indanylaminopyridylcyclopropanecarboxylic acids, pharmaceutical compositions and uses thereof” (BOEHRINGER INGELHEIM INTERNATIONAL GMBH, priority 2015, dated 2017)
# Experiments:
# [1] = Aqueous solubility in buffer vs acetonitrile/water (1/1), LC-UV; assay type: physicochemical; settings: kinetic from dmso stock, buffer pH 2.2, 24 h shaking, 2.5% DMSO
# Procedure: The aqueous solubility of the compounds of the invention is determined by comparing the amount dissolved in buffer to the amount in an acetonitrile/water (1/1) solution. Starting from a 10 mM DMSO stock solution aliquots are diluted with acetonitrile/water (1/1) or buffer, respectively. After 24 h of shaking, the solutions are filtrated and analyzed by LC-UV. The amount dissolved in buffer is compared to the amount in the acetonitrile solution.
# Solubility is usually being measured from 0.001 to 0.125 mg/mL at a DMSO concentration of 2.5%. If more than 90% of the compound is dissolved in buffer, the value is marked with “>”.
# [2] = molecular target: T1, cytochrome P450 2C8-isoenzyme (Homo sapiens, UniProt P10632); experiment: Inhibition of CYP-2C8 (deethylation of amodiaquine, human liver microsomes); assay type: in vitro ADME; settings: CYP-2C8, human liver microsomes, amodiaquine 1 μM, 37° C.
# T1 construct: from tissue; host or cells: human liver microsomes
# T1 sequence (P10632 1-490): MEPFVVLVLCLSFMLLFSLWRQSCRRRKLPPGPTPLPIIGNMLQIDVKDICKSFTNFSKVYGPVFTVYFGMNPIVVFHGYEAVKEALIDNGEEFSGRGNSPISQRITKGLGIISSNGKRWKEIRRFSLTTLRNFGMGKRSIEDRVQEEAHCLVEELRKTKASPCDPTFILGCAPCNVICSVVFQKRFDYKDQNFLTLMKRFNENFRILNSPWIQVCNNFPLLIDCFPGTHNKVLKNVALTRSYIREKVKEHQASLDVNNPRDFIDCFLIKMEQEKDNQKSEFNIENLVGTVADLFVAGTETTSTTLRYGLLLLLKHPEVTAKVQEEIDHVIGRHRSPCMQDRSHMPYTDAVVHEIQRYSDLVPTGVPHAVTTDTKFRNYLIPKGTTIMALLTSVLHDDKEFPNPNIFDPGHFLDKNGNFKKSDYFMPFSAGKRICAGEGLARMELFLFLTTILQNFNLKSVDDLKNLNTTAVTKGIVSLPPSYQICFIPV
# Procedure: The inhibition of cytochrome P450 2C8-isoenzyme catalyzed deethylation of amodiaquine by the test compound is assayed at 37° C. with human liver microsomes. All assays are carried out on a robotic system in 96 well plates. The final incubation volume contains TRIS buffer (0.1 M), MgCl2 (5 mM), human liver microsomes (0.05 mg/mL), amodiaquine (1 μM) and the test compound at five different concentrations or no compound (high control) in duplicate (e.g. highest concentration 10-50 μM with subsequent serial 1:4 dilutions). Following a short preincubation period, reactions are started with the cofactor (NADPH, 1 mM) and stopped by cooling the incubation down to 8° C. and subsequently by addition of one volume of acetonitrile. An internal standard solution—the stable isotope d5-desethylamodiaquine—is added after quenching of incubations. Peak area analyte (=metabolite formed) and internal standard is determined by LC-MS/MS. The resulting peak area ratio analyte to internal standard in these incubations is compared to a control activity containing no test compound. Within each of the assay runs, the IC50 of a positive control inhibitor (Montelukast) is determined. Experimental IC50 values are calculated by least square regression according to the following equation: % control activity=(100% control activity/(1+(I/IC50)S))−B with I=inhibitor concentration; S=slope factor; B=background activity (lower plateau of the inhibition curve)
# (§1) If the inhibition of the reaction is already >50% at the lowest concentration of the test compound, the IC50 is assigned “<lowest concentration tested” (usually <0.4 μM). If the inhibition of the reaction is still <50% at the highest concentration of the test compound, the IC50 is assigned “>highest concentration tested” (usually >50 μM).
# [3] = molecular target: T2, cytochrome P450 2C9-isoenzyme (Homo sapiens, UniProt P11712); experiment: Inhibition of CYP-2C9 (hydroxylation of diclofenac, human liver microsomes); assay type: in vitro ADME; settings: CYP-2C9, human liver microsomes, diclofenac 10 μM, 37° C.
# T2 construct: from tissue; host or cells: human liver microsomes
# Procedure: The inhibition of cytochrome P450 2C9-isoenzyme catalyzed hydroxylation of diclofenac by the test compound is assayed at 37° C. with human liver microsomes. All assays are carried out on a robotic system in 96 well plates. The final incubation volume contains TRIS buffer (0.1 M), MgCl2 (5 mM), human liver microsomes (0.1 mg/mL), diclofenac (10 μM) and the test compound at five different concentrations or no compound (high control) in duplicate (e.g., highest concentration 10-50 μM with subsequent serial 1:4 dilutions). Following a short preincubation period, reactions are started with the cofactor (NADPH, 1 mM) and stopped by cooling the incubation down to 8° C. and subsequently by addition of one volume of acetonitrile. An internal standard solution—the stable isotope ^13C6-hydroxydiclofenac—is added after quenching of incubations. Peak area analyte (=metabolite formed) and internal standard is determined by LC-MS/MS. The resulting peak area ratio analyte to internal standard in these incubations is compared to a control activity containing no test compound. Within each of the assay runs, the IC50 of a positive control inhibitor (sulfaphenazole) is determined. Experimental IC50 values are calculated by least square regression according to the following equation: % control activity=(100% control activity/(1+(I/IC50)S))−B with I=inhibitor concentration; S=slope factor; B=background activity (lower plateau of the inhibition curve)
# as §1
# human GPR40 receptor = human GPR40 receptor (Homo sapiens, UniProt O14842); experiment: IP1 accumulation measurements using the IPOne assay system (1321N1 cells stably expressing human GPR40 receptor); assay type: cell-based; settings: 1321N1 cells expressing human GPR40, 1 h stimulation at 37° C.
# Procedure: IP1 accumulation measurements using the IPOne assay system—1321N1 cells stably expressing human GPR40 receptor (Euroscreen, Belgium) are seeded 24 h before the assay in white 384-well plates in culture medium containing 10% FCS, 1% Na-Pyruvate and 400 μg/mL G418. IP1 is assayed according to the manufacturer's description (Cisbio Bioassays, France). In brief, the assay is started by substitution of the culture medium by stimulation buffer (Hepes 10 mM, CaCl2 1 mM, MgCl2 0.5 mM, KCl 4.2 mM, NaCl 146 mM, glucose 5.5 mM and LiCl 50 mM, pH 7.4). Cells are stimulated for 1 h at 37° C., 5% CO2 by addition of the compounds that are diluted in stimulation buffer containing LiCl. Assays are stopped by adding HTRF-conjugates (IP1-d2 and Anti-IP1 cryptate Tb) and lysis buffer, provided by the manufacturer. After an incubation time of 1 h at room temperature plates are measured using an EnVision™, Perkin Elmer. The obtained fluorescence ratios at 665/615 […] are then used to calculate the pEC50 values using Assay Explorer 3.3 Software (Accelrys, Inc.) by interpolation using an IP1 reference curve and subsequent sigmoidal curve fitting allowing for a variable hill slope.
# T2 sequence (P11712 whole entry): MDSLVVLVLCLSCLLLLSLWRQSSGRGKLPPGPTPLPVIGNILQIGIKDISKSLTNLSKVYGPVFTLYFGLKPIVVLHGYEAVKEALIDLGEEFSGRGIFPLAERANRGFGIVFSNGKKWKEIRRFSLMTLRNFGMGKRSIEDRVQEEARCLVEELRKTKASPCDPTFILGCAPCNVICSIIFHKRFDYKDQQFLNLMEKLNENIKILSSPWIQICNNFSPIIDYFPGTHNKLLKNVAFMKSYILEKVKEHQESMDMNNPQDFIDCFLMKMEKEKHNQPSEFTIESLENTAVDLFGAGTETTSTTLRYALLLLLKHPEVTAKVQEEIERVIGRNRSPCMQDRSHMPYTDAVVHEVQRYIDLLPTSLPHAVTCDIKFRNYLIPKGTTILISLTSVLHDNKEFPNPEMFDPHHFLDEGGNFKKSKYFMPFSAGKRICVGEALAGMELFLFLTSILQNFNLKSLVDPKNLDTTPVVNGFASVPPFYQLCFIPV
# Sequence of human GPR40 receptor (O14842 whole entry): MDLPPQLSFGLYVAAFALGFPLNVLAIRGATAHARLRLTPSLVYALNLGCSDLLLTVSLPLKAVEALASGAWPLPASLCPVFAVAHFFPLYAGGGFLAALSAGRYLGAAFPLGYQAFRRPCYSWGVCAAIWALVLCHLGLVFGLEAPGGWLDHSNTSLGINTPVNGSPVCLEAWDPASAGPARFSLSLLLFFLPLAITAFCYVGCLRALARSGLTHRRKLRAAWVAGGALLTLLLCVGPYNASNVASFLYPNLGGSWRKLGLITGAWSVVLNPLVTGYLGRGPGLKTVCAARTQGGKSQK
smiles,measurement,setting,value
Cc1cc(OCC2CCOC2)cc(C)c1-c1ccc(F)c2c1CC[C@H]2Nc1ccc([C@H]2C[C@@H]2C(=O)O)cn1 (stereo partly shown) [Example 16],solubility at 24 h,[1],110 µg/mL
same,IC50,[2],46 µM
same,IC50,[3],> 50 µM
same,EC50,human GPR40 receptor,0.011 µM
Cc1cccc(C)c1-c1ccc(F)c2c1CC[C@H]2Nc1ccc([C@H]2C[C@@H]2C(=O)O)cn1 [Example 17],solubility at 24 h,[1],65 µg/mL
same,IC50,[2],34 µM
same,IC50,[3],36 µM
same,EC50,human GPR40 receptor,0.013 µM
Cc1cc(-c2nnnn2CC(C)(C)O)cc(C)c1-c1ccc(F)c2c1CC[C@H]2Nc1ccc([C@H]2C[C@@H]2C(=O)O)cn1 [Example 24],solubility at 24 h,[1],103 µg/mL
same,IC50,[2],> 50 µM
same,IC50,[3],> 50 µM
same,EC50,human GPR40 receptor,0.318 µM
Cc1cc(-c2nnn[nH]2)cc(C)c1-c1ccc(F)c2c1CC[C@H]2Nc1ccc([C@H]2C[C@@H]2C(=O)O)cn1 [Example 25],solubility at 24 h,[1],67 µg/mL
same,IC50,[2],4 µM
same,IC50,[3],> 50 µM
same,EC50,human GPR40 receptor,0.177 µM
Cc1cc(CO)cc(C)c1-c1ccc(F)c2c1CC[C@H]2Nc1ccc([C@H]2C[C@@H]2C(=O)O)cn1 [Example 28],solubility at 24 h,[1],87 µg/mL
same,IC50,[2],> 50 µM
same,IC50,[3],> 50 µM
same,EC50,human GPR40 receptor,0.071 µM
Cc1cc(OCC(C)(C)O)cc(C)c1-c1ccc(F)c2c1CC[C@H]2Nc1ccc([C@H]2C[C@@H]2C(=O)O)cn1 [Example 29],solubility at 24 h,[1],111 µg/mL
same,IC50,[2],> 50 µM
same,IC50,[3],> 50 µM
same,EC50,human GPR40 receptor,0.017 µM
Cc1cc(OCc2ccccc2)cc(C)c1-c1ccc(F)c2c1CC[C@H]2Nc1ccc([C@H]2C[C@@H]2C(=O)O)cn1 [Example 32],solubility at 24 h,[1],< 1 µg/mL
same,IC50,[2],12 µM
same,IC50,[3],24 µM
same,EC50,human GPR40 receptor,0.035 µM
Cc1cc(OCC2(C)COC2)cc(C)c1-c1ccc(F)c2c1CC[C@H]2Nc1ccc([C@H]2C[C@@H]2C(=O)O)cn1 [Example 33],solubility at 24 h,[1],103 µg/mL
same,IC50,[2],26 µM
same,IC50,[3],> 50 µM
same,EC50,human GPR40 receptor,0.014 µM
Cc1cc(OCC(=O)O)cc(C)c1-c1ccc(F)c2c1CC[C@H]2Nc1ccc([C@H]2C[C@@H]2C(=O)O)cn1 [Example 34],solubility at 24 h,[1],73 µg/mL
same,IC50,[2],> 50 µM
same,IC50,[3],> 50 µM
same,EC50,human GPR40 receptor,4.13 µM
Cc1cc(-c2ccc(=O)n(C)c2)cc(C)c1-c1ccc(F)c2c1CC[C@H]2Nc1ccc([C@H]2C[C@@H]2C(=O)O)cn1 [Example 37],solubility at 24 h,[1],113 µg/mL
same,IC50,[2],17 µM
same,IC50,[3],> 50 µM
same,EC50,human GPR40 receptor,0.011 µM
N#Cc1cccc(C#N)c1-c1ccc(F)c2c1CC[C@H]2Nc1ccc([C@H]2C[C@@H]2C(=O)O)cn1 [Example 44],solubility at 24 h,[1],> 158 µg/mL
same,IC50,[2],> 50 µM
same,IC50,[3],> 50 µM
same,EC50,human GPR40 receptor,4.13 µM
Cc1cc(-c2cc(=O)n(C)cn2)cc(C)c1-c1ccc(F)c2c1CC[C@H]2Nc1ccc([C@H]2C[C@@H]2C(=O)O)cn1 [Example 45],solubility at 24 h,[1],86 µg/mL
same,IC50,[2],24 µM
same,IC50,[3],> 50 µM
same,EC50,human GPR40 receptor,0.005 µM
COc1cc(OC)c(-c2ccc(F)c3c2CC[C@H]3Nc2ccc([C@H]3C[C@@H]3C(=O)O)cn2)c(OC)c1 [Example 48],solubility at 24 h,[1],> 107 µg/mL
same,IC50,[2],> 50 µM
same,IC50,[3],> 50 µM
same,EC50,human GPR40 receptor,0.427 µM
Cc1ccc(Cl)c(-c2ccc(F)c3c2CC[C@H]3Nc2ccc([C@H]3C[C@@H]3C(=O)O)cn2)c1Cl [Example 51],solubility at 24 h,[1],56 µg/mL
same,IC50,[2],12 µM
same,IC50,[3],17 µM
same,EC50,human GPR40 receptor,0.007 µM
COc1cc(OC)c(Cl)c(-c2ccc(F)c3c2CC[C@H]3Nc2ccc([C@H]3C[C@@H]3C(=O)O)cn2)c1Cl [Example 53],solubility at 24 h,[1],76 µg/mL
same,IC50,[2],11 µM
same,IC50,[3],14 µM
same,EC50,human GPR40 receptor,0.013 µM
O=C(O)[C@H]1C[C@@H]1c1ccc(N[C@@H]2CCc3c(-c4c(F)cccc4F)ccc(F)c32)nc1 [Example 55],solubility at 24 h,[1],73 µg/mL
same,IC50,[2],> 50 µM
same,IC50,[3],> 50 µM
same,EC50,human GPR40 receptor,0.208 µM
COc1cc(OC)c(F)c(-c2ccc(F)c3c2CC[C@H]3Nc2ccc([C@H]3C[C@@H]3C(=O)O)cn2)c1F [Example 57],solubility at 24 h,[1],99 µg/mL
same,IC50,[2],19 µM
same,IC50,[3],48 µM
same,EC50,human GPR40 receptor,0.107 µM
O=C(O)[C@H]1C[C@@H]1c1ccc(N[C@@H]2CCc3c(-c4c(F)cc(OC5CC5)cc4F)ccc(F)c32)nc1 [Example 60],solubility at 24 h,[1],68 µg/mL
same,IC50,[2],25 µM
same,IC50,[3],9 µM
same,EC50,human GPR40 receptor,0.061 µM
Cc1cc(OCC2CCOCC2)cc(C)c1-c1ccc(F)c2c1CC[C@H]2Nc1ccc([C@H]2C[C@@H]2C(=O)O)cn1 [Example 61],solubility at 24 h,[1],90 µg/mL
same,IC50,[2],15 µM
same,IC50,[3],33 µM
same,EC50,human GPR40 receptor,0.005 µM
Cc1cc(-c2ccn(C)c(=O)n2)cc(C)c1-c1ccc(F)c2c1CC[C@H]2Nc1ccc([C@H]2C[C@@H]2C(=O)O)cn1 [Example 71],solubility at 24 h,[1],121 µg/mL
same,IC50,[2],18 µM
same,IC50,[3],> 50 µM
same,EC50,human GPR40 receptor,0.006 µM
Cc1cc(OCC2(O)CCSCC2)cc(C)c1-c1ccc(F)c2c1CC[C@H]2Nc1ccc([C@H]2C[C@@H]2C(=O)O)cn1 [Example 73],solubility at 24 h,[1],89 µg/mL
same,IC50,[2],20 µM
same,IC50,[3],45 µM
same,EC50,human GPR40 receptor,0.017 µM
COc1c(F)c(F)c(-c2ccc(F)c3c2CC[C@H]3Nc2ccc([C@H]3C[C@@H]3C(=O)O)cn2)c(F)c1F [Example 76],solubility at 24 h,[1],104 µg/mL
same,IC50,[2],30 µM
same,IC50,[3],40 µM
same,EC50,human GPR40 receptor,0.003 µM
